Source: US9776972B2, “Pyrazole derivatives as arginine methyltransferase inhibitors and uses thereof” (priority 2013, dated 2017)
Where a name gives a salt, the structure may show the parent alone.

Biological target: T1, Human CARM1 (PRMT4) (Homo sapiens, UniProt Q86X55)
T1 construct: Flag-CARM1-His; made in house; host or cells: HEK 293F cells (BacMam baculovirus)
T1 sequence (Q86X55 1-585 isoform Q86X55-1): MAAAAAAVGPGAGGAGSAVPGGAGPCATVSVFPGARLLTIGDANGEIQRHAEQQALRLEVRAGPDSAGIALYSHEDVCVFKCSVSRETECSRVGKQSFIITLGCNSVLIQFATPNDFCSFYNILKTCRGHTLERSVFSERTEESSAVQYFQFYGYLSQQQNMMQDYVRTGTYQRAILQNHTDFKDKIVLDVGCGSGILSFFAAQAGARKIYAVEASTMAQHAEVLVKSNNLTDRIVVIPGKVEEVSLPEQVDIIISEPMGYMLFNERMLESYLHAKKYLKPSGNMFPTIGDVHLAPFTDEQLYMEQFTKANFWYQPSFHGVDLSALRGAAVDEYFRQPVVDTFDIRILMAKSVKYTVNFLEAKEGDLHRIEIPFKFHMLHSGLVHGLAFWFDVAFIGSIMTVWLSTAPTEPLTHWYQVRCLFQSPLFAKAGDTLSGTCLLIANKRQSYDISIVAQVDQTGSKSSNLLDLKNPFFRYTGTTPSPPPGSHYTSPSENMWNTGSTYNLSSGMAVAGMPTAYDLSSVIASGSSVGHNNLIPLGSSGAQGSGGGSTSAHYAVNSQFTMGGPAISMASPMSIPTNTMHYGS
Experiment: CARM1 Biochemical Assay (3H-SAM Flashplate, peptide substrate)
Details: not given
Source text: S-adenosylmethionine (SAM), S-adenosylhomocysteine (SAH), bicine, Tween20, dimethylsulfoxide (DMSO), bovine skin gelatin (BSG), sodium butyrate and Tris(2-carboxyethyl)phosphine hydrochloride solution (TCEP) were purchased from Sigma-Aldrich at the highest level of purity possible. ^3H-SAM was purchase from American Radiolabeled Chemicals with a specific activity of 80 Ci/mmol. 384-well streptavidin Flashplates were purchased from PerkinElmer.
Peptide representative of human histone H3 residues 16-30 was synthesized with an N-terminal linker-affinity tag motif and a C-terminal amide cap by 21st Century Biochemicals. […] The sequence was Biot-Ahx-[…]-amide and contained a monomethylated arginine at position 26 (SEQ ID NO.: 14).
Recombinant baculovirus were generated according to Bac-to-Bac kit instructions (Life Technologies). […] Infections were carried out at 37° C. for 48 hours, harvested by centrifugation, and stored at −80° C. for purification.
Column was washed with 500 mM NaCl in buffer A and Flag-CARM1-His was eluted with 200 ug/ml FLAG peptide in buffer A. Pooled fractions were dialyzed in 20 mM Tris, 150 mM NaCl, 5% glycerol and 1 mM DTT, pH 7.8.
General Procedure for CARM1 Enzyme Assays on Peptide Substrates.
The assays were all performed in a buffer consisting of 20 mM Bicine (pH=7.6), 1 mM TCEP, 0.005% BSG, and 0.002% Tween 20, prepared on the day of use. […] DMSO (1 ul) was added to Columns 11, 12, 23, 24, rows A-H for the maximum signal control and 1 ul of SAH, a known product and inhibitor of CARM1, was added to columns 11, 12, 23, 24, rows I-P for the minimum signal control. A cocktail (40 ul) containing the CARM1 enzyme was added by Multidrop Combi (Thermo-Fisher). The compounds were allowed to incubate with CARM1 for 30 min at room temperature, then a cocktail (10 ul) containing ^3H-SAM and peptide was added to initiate the reaction (final volume=51 ul). […] The assays were stopped by the addition of non-radiolabeled SAM (10 ul) to a final concentration of 300 uM, which dilutes the ^3H-SAM to a level where its incorporation into the peptide substrate is no longer detectable. 50 ul of the reaction in the 384-well polypropylene plate was then transferred to a 384-well Flashplate and the biotinylated peptides were allowed to bind to the streptavidin surface for at least 1 hour before being washed once with 0.1% Tween20 in a Biotek ELx405 plate washer. The plates were then read in a PerkinElmer TopCount plate reader to measure the quantity of ^3H-labeled peptide bound to the Flashplate surface, measured as disintegrations per minute (dpm) or alternatively, referred to as counts per minute (cpm).
Where dpm=disintegrations per minute, cmpd=signal in assay well, and min and max are the respective minimum and maximum signal controls.
Where top and bottom are the normally allowed to float, but may be fixed at 100 or 0 respectively in a 3-parameter fit. The Hill Coefficient normally allowed to float but may also be fixed at 1 in a 3-parameter fit. Y is the % inhibition and X is the compound concentration.

Row | SMILES | IC50
1 | CNCCN(C)Cc1cnn(C)c1-c1ccc(OC(C)C)cc1 [Compound 244, hydrochloride] | < 100 nM

Same assay, conditions: single experiment or average of multiple experiments

Row | IC50 | SMILES
2 | 2660 nM | CCn1ncc(CN(C)CCNC)c1-c1ccc(F)cc1 [Compound 7]
3 | 3460 nM | CCn1cc(CN(C)CCNC)c(-c2ccc(F)cc2)n1 [Compound 8]
4 | 76.5 nM | CN(CCN)Cc1c[nH]nc1-c1ccc(OCC(F)(F)F)cc1 [Compound 96]
5 | 439 nM | CN(CCN)Cc1c[nH]nc1-c1ccc(C2CCOCC2)cc1 [Compound 98]
6 | 7610 nM | CN(CCN)Cc1c[nH]nc1-c1ccc(F)cc1F [Compound 99]
7 | 4130 nM | CN(CCN)Cc1n[nH]cc1-c1ccc(C#N)cc1 [Compound 100]
8 | 1060 nM | CN(CCN)Cc1n[nH]cc1-c1ccc(Cl)cc1 [Compound 102]
9 | 1480 nM | CN(CCN)Cc1n[nH]cc1-c1ccc(C(F)(F)F)cc1 [Compound 103]
10 | 1960 nM | CN(CCN)Cc1n[nH]cc1-c1ccc(C2CC2)cc1 [Compound 104]
11 | 3060 nM | CN(CCN)Cc1n[nH]cc1-c1ccc(OC(F)(F)F)cc1 [Compound 105]
12 | 2860 nM | COc1ccc(-c2n[nH]cc2CN(C)CCN)c(F)c1 [Compound 107]
13 | 1530 nM | Cc1ccc(-c2n[nH]cc2CN(C)CCN)c(F)c1 [Compound 108]
14 | 5210 nM | COc1ccccc1-c1n[nH]cc1CN(C)CCN [Compound 109]
15 | 8770 nM | Cc1cc(C#N)ccc1-c1n[nH]cc1CN(C)CCN [Compound 110]
16 | 458 nM | CN(CCN)Cc1c[nH]nc1-c1cc(F)cc(F)c1 [Compound 111]
17 | 2440 nM | CC(=O)c1cccc(-c2n[nH]cc2CN(C)CCN)c1 [Compound 112]
18 | 332 nM | CN(CCN)Cc1c[nH]nc1-c1ccc(OC2CC2)cc1 [Compound 114]
19 | 3530 nM | CC(O)c1ccc(-c2n[nH]cc2CN(C)CCN)cc1 (stereo not shown) [Compound 115]
20 | 1220 nM | CN(CCN)Cc1c[nH]nc1-c1ccc(C2CC2)cc1 [Compound 116]
21 | 602 nM | CN(CCN)Cc1c[nH]nc1-c1ccc(C(F)(F)F)c(Cl)c1 [Compound 117]

Row | IC50 | SMILES
22 | 114 nM | CN(CCN)Cc1c[nH]nc1-c1ccc(Cl)c(F)c1 [Compound 118]
23 | 441 nM | CN(CCN)Cc1n[nH]cc1-c1ccc(OC2CC2)cc1 [Compound 119]
24 | 216 nM | CN(CCN)Cc1c[nH]nc1-c1cc(F)cc(Cl)c1 [Compound 121]
25 | 405 nM | CN(CCN)Cc1c[nH]nc1-c1cccc(Cl)c1 [Compound 122]
26 | 1870 nM | CN(CCN)Cc1c[nH]nc1-c1cccc(Cl)c1F [Compound 123]
27 | 545 nM | CN(CCN)Cc1c[nH]nc1-c1ccc(F)c(Cl)c1 [Compound 124]
28 | 102 nM | Cc1ccc(-c2n[nH]cc2CN(C)CCN)cc1Cl [Compound 126]
29 | 1120 nM | COc1cc(Cl)cc(-c2n[nH]cc2CN(C)CCN)c1 [Compound 127]
30 | 2420 nM | Cc1c(F)cccc1-c1n[nH]cc1CN(C)CCN [Compound 129]
31 | 2410 nM | COc1cccc(-c2n[nH]cc2CN(C)CCN)c1 [Compound 130]
32 | 1180 nM | Cc1cccc(-c2n[nH]cc2CN(C)CCN)c1 [Compound 131]
33 | 4270 nM | Cc1cc(Cl)ccc1-c1n[nH]cc1CN(C)CCN [Compound 133]
34 | 2600 nM | COc1ccc(-c2n[nH]cc2CN(C)CCN)cc1F [Compound 134]
35 | 2070 nM | CCNC(=O)c1ccc(-c2n[nH]cc2CN(C)CCN)cc1 [Compound 136]
36 | 849 nM | CN(CCN)Cc1c[nH]nc1-c1cc(Cl)cc(Cl)c1 [Compound 137]
37 | 2700 nM | CN(CCN)Cc1n[nH]cc1-c1ccc(OC(F)F)cc1 [Compound 138]
38 | 1370 nM | CN(CCN)Cc1c[nH]nc1-c1ccc(C(F)(F)F)c(F)c1 [Compound 141]
39 | 1290 nM | COc1cc(-c2n[nH]cc2CN(C)CCN)ccc1F [Compound 142]
40 | 5850 nM | CCN(CC)C(=O)c1ccc(-c2n[nH]cc2CN(C)CCN)cc1 [Compound 143]
41 | 4620 nM | CC(C)Oc1ccc(-c2c[nH]nc2CN(C)CCN)cc1F [Compound 144]

Row | SMILES | IC50
42 | CC(C)Oc1ccc(-c2n[nH]cc2CN(C)CCN)cc1F [Compound 97] | 511 nM
43 | CC(C)c1ccc(-c2c[nH]nc2CN(C)CCN)cc1 [Compound 101] | 4760 nM
44 | COc1ccc(-c2n[nH]cc2CN(C)CCN)cc1Cl [Compound 125] | 1440 nM
45 | CN(CCN)Cc1c[nH]nc1-c1ccc(Cl)cc1F [Compound 132] | 2110 nM
46 | CNCCN(C)Cc1cnn(C)c1-c1ccc(OC(C)C)cc1 [Compound 244, hydrochloride] | 92.5 nM
